Results reported in paper PMC10884005, “Euglena’s atypical respiratory chain adapts to the discoidal cristae and flexible metabolism” (Nature Communications, 2024).

Tests used:
[1] = molecular target: T1, Eg-CI (ubiquinone / rotenone site); assay: NADH-DQ oxidoreductase, NADH oxidation at […] nm; assay type: biochemical, Euglena gracilis; settings: 10 nM Eg-CI, 200 μM decylubiquinone, 250 μM NADH, pH 7.4, 0.1% digitonin, room temperature
T1 construct: gene ND1; native mitochondrial complex I, LMNG-solubilised, 59 subunits (16 core), ion exchange and SEC; cells catalogue GY-D32; with NADH dehydrogenase [ubiquinone] flavoprotein 1, mitochondrial; NADH-ubiquinone oxidoreductase 75 kDa subunit, N-terminal part; NADH-ubiquinone oxidoreductase 75 kDa subunit, C-terminal part

S. scrofa CI = molecular target: T2, S. scrofa CI (Sus scrofa, UniProt A0A4X1SZP7); assay: NADH oxidation at […] nm; assay type: biochemical; settings: 200 μM DQ, 300 μM NADH, pH 7.4; thermal deactivation assay
T2 construct: gene NDUFV1; native purified mitochondrial complex I; with NADH dehydrogenase [ubiquinone] flavoprotein 2, mitochondrial; NADH-ubiquinone oxidoreductase 75 kDa subunit, mitochondrial
T2 sequence (A0A4X1SZP7 21-464): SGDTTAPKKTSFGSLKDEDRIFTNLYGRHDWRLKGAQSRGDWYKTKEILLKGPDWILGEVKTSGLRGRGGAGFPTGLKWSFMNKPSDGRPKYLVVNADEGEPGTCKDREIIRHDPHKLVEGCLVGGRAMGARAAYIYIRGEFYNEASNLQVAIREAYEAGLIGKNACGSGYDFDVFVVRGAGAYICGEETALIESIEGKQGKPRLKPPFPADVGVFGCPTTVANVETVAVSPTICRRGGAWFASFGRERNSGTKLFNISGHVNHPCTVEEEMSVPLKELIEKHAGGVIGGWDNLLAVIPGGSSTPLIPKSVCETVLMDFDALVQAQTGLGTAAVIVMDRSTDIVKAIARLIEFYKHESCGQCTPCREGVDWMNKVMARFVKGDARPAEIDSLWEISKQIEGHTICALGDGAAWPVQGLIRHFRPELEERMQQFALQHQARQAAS

| SMILES | IC50 [1] | NADH oxidation at 340 nm (S. scrofa CI) |
| --- | --- | --- |
| C=C(C)[C@H]1Cc2c(ccc3c2O[C@@H]2COc4cc(OC)c(OC)cc4[C@@H]2C3=O)O1 [rotenone] | ~11 µM |  |
| NC(=O)C1=CN([C@@H]2O[C@H](COP(=O)(O)OP(=O)(O)OC[C@H]3O[C@@H](n4cnc5c(N)ncnc54)[C@H](O)[C@@H]3O)[C@@H](O)[C@H]2O)C=CC1 [NADH] |  | Thermal deactivation assays of S. scrofa CI (a) |
